Reference: PMC1874184 (Environmental Health Perspectives, 2005)
In brackets after ≈: the same amount, converted by molar mass. Entries after “also recorded” stand apart in the source; their conditions may differ. Read-outs that look alike come from different tables or passages of the source.

Experiments:
Marisa cornuarietis [1] = format: in vivo; conditions: for Oviduct malformations under co-exposure with BPA: 5 μg BPA/L plus 3 μg ICI 182,780/L or 10 μg tamoxifen/L; for EC10 (95% confidence intervals), clutch production / EC10 (95% confidence intervals), egg production / NOEC, clutch production / NOEC, egg production: entire duration
[2] = system: ER-like binding site (specific [3H]-E2 binding); assay: Competitive displacement of specific [3H]-E2 binding in gonad cytosolic extracts; conditions: for Displacement activity / affinity for ER-like binding site (in words): 24 nM [3H]-E2; for IC50: read-out: IC50, displacement of specific [3H]-E2 binding, 24 nM [3H]-E2, 18 hr incubation, n = 3
[3] = system: Japanese medaka (Oryzias latipes); conditions: ref Metcalfe et al. 2001; cited from earlier work
[4] = system: swordtails (Xiphophorus helleri); conditions: male fish; ref Kwak et al. 2001; cited from earlier work
vertebrate ER = conditions: ref Bolger et al. 1998; cited from earlier work
[5] = cited from earlier work
Marisa cornuarietis [6] = conditions: ref Oehlmann et al. 2000; cited from earlier work
[7] = ref Heemken et al. 2001; Staples et al. 1998; cited from earlier work
Acartia tonsa = conditions: ref Andersen et al. (1999); cited from earlier work
[8] = system: aquatic organisms (vertebrates and invertebrates); conditions: ref Hirano et al. 2004, Ike et al. 2002; cited from earlier work
Potamopyrgus antipodarum = conditions: exposure via sediments; ref Duft et al. (2003); cited from earlier work
Caenorhabditis elegans = conditions: ref Tominaga et al. (2003); cited from earlier work
C. riparius = conditions: freshly emerged midges, 1 to 3,000 μg/L; ref Hahn et al. (2002); cited from earlier work
Marisa cornuarietis [9] = assay: Exposure series I: 6-month semistatic exposure of sexually mature snails at 22°C; format: in vivo
[10] = system: freshwater sponges (Heteromyenia sp.); conditions: ref Hill et al. (2002); cited from earlier work
[11] = 20°C, measured BPA concentrations
[12] = 27°C, measured BPA concentrations
[13] = prespawning period (days 0–65), 22°C, based on measured BPA concentrations
[14] = prespawning period, 22°C, measured concentrations

Structure (SMILES): CC/C(=C(\c1ccccc1)c1ccc(OCCN(C)C)cc1)c1ccccc1 [Tam, tamoxifen, reference compound]
- Oviduct malformations under co-exposure with BPA (Marisa cornuarietis [1]; 20°C): No oviduct malformations
- Displacement activity / affinity for ER-like binding site (in words) [2]: moderate affinity

Structure (SMILES): C[C@]12CC[C@@H]3c4ccc(O)cc4CC[C@H]3[C@@H]1CC[C@@H]2O [E2]
- IC50 [2]: 0.753 µM

Structure (SMILES): C[C@]12CC[C@H]3[C@@H](CCC4=CC(=O)CC[C@@]43C)[C@@H]1CC[C@@H]2O [T, testosterone]
- Displacement activity / affinity for ER-like binding site (in words) [2]: only weak displacement activity

Structure (SMILES): CC(C)(c1ccc(O)cc1)c1ccc(O)cc1 [BPA, 4,4′-isopropylidine diphenol]
- Concentration inducing ovotestes (as low as) [3]: 10 µg/L
- Imposex development (Marisa cornuarietis [1]; 20°C and 27°C, ANOVA and Weir test p > 0.5): did not induce imposex development
- Size of genital organs (penis pouch, penis sheath, penis) in males (Marisa cornuarietis [1]; 20°C or 27°C, with the exception of penis length at 20°C): did not affect
- EC10 (95% confidence intervals), clutch production (Marisa cornuarietis [1]; [11]): 18.0 (6.20–52.4) ng/L
- EC10 (95% confidence intervals), egg production (Marisa cornuarietis [1]; [11]): 14.8 (6.07–36.2) ng/L
- NOEC, clutch production (Marisa cornuarietis [1]; 20°C, measured concentrations): < 106 ng/L
- NOEC, egg production (Marisa cornuarietis [1]; 20°C, measured concentrations): < 106 ng/L
- LOEC, clutch production (Marisa cornuarietis [1]; 20°C, measured concentrations): 106 ng/L
- LOEC, egg production (Marisa cornuarietis [1]; 20°C, measured concentrations): 106 ng/L
- Incidence of superfemales with oviduct malformations (Marisa cornuarietis [1]; 20°C, nominal 0.25 μg/L BPA): 4.8
- Incidence of superfemales with oviduct malformations (Marisa cornuarietis [1]; 20°C, nominal 0.5 μg/L BPA): 8.0
- Incidence of superfemales with oviduct malformations (Marisa cornuarietis [1]; 20°C, nominal 1 μg/L BPA): 14.8
- Incidence of superfemales with oviduct malformations (Marisa cornuarietis [1]; 20°C, nominal 5 μg/L BPA): 11.5
- Mortality compared to SC (Marisa cornuarietis [1]; 20°C, 0.25, 0.5, 1 and 5 μg BPA/L, χ2 test): increased significantly
- Clutch and egg production compared with SC (Marisa cornuarietis [1]; 20°C, cumulative p < 0.01, per female p < 0.001): significantly more
- Penis length in males (Marisa cornuarietis [1]; 20°C, p < 0.01): significant decrease; also recorded: concentration-dependent reduction
- EC10 (95% confidence intervals), clutch production (Marisa cornuarietis [1]; [12]): 2090 (796–5,460) ng/L
- EC10 (95% confidence intervals), egg production (Marisa cornuarietis [1]; [12]): 998 (161–6,200) ng/L
- NOEC, clutch production (Marisa cornuarietis [1]; 27°C, measured concentrations): ≥ 1990 ng/L
- NOEC, egg production (Marisa cornuarietis [1]; 27°C, measured concentrations): 205 ng/L
- Clutch production compared with control (Marisa cornuarietis [1]; 27°C, groups exposed solely to BPA): none of the groups exposed solely to BPA produced significantly more clutches
- EC10, clutch production (Marisa cornuarietis [1]; [12]): 2.09 µg/L (≈ 9.15 nM)
- EC10, egg production (Marisa cornuarietis [1]; [12]): 0.998 µg/L (≈ 4.37 nM)
- LOEC, egg production (Marisa cornuarietis [1]; 27°C, measured concentrations): 436 ng/L
- Cumulative egg production compared with SC (Marisa cornuarietis [1]; 27°C, only at nominal 1 and 5 μg/L, p < 0.05): significant increase
- Concentration range inhibiting development of the sword [4]: 0.2 to 20 µg/L
- Affinity to the vertebrate ER (in words) (vertebrate ER): weak affinity
- half-life (degradation) ([5]; in sewage treatment plants, ref Howard 1989): 28 days
- half-life (degradation) ([5]; in water, ref Dorn et al. 1987): 2.5 to 4 days
- Concentration inducing superfeminization syndrome (as low as) (Marisa cornuarietis [6]): 1 µg/L
- log KOW [7]: 2.20–3.82
- Concentration with increase of egg production (Acartia tonsa): 20 μg BPA/L
- 96-hr LC50 (median lethal concentration) [8]: 1 to 20 mg/L
- EC10, increase of embryo numbers in the brood pouch (superfemale response) (Potamopyrgus antipodarum): 0.22 μg BPA/kg
- LC50 (Caenorhabditis elegans): > 100 µM
- IC50 [2]: 24.8 µM
- Reduction of yolk protein contents (C. riparius): 20–25%
- Cumulative clutch and egg production compared with SC (Marisa cornuarietis [9]; entire experiment, nominal BPA 0.1, 0.5 and 1 μg/L, PC 0.01 μg/L EE2, p < 0.05): significantly more
- Incidence of superfemales with oviduct malformations (Marisa cornuarietis [9]; nominal 0.05 μg/L BPA, 22°C): 1.2%
- Incidence of superfemales with oviduct malformations (Marisa cornuarietis [9]; nominal 0.1 μg/L BPA, 22°C): 0%
- Incidence of superfemales with oviduct malformations (Marisa cornuarietis [9]; nominal 0.25 μg/L BPA, 22°C): 2.0%
- Incidence of superfemales with oviduct malformations (Marisa cornuarietis [9]; nominal 0.5 μg/L BPA, 22°C): 3.1%
- Incidence of superfemales with oviduct malformations (Marisa cornuarietis [9]; nominal 1 μg/L BPA, 22°C): 3.2%
- EC10 (95% confidence intervals), clutch production (Marisa cornuarietis [9]; [13]): 14.6 (13.8–15.4) ng/L
- EC10 (95% confidence intervals), egg production (Marisa cornuarietis [9]; [13]): 13.9 (12.8–15.0) ng/L
- LOEC, clutch production (Marisa cornuarietis [9]; [14]): 48.3 ng/L
- LOEC, egg production (Marisa cornuarietis [9]; [14]): 48.3 ng/L
- NOEC, clutch production (Marisa cornuarietis [9]; [14]): 7.9 ng/L
- NOEC, egg production (Marisa cornuarietis [9]; [14]): 7.9 ng/L
- Imposex development (Marisa cornuarietis [9]; sexually mature snails, 22°C, ANOVA and Weir test p > 0.2): did not induce imposex development
- Concentration completely inhibiting germination [10]: 80 mg/L
- Concentration range with significant reductions in growth rates [10]: 0.16 to 160 mg/L

Structure (SMILES): C[C@]12CC[C@@H]3c4ccc(O)cc4C[C@@H](CCCCCCCCC[S+]([O-])CCCC(F)(F)C(F)(F)F)[C@H]3[C@@H]1CC[C@@H]2O (stereo partly shown) [ICI, ICI 182,780, reference compound]
- Imposex intensities compared to SC under co-exposure with BPA (Marisa cornuarietis [1]; 5 μg BPA/L plus 3 μg ICI 182,780/L, both temperatures, Weir test p < 0.05): imposex intensities increased
- Oviduct malformations under co-exposure with BPA (Marisa cornuarietis [1]; 20°C): No oviduct malformations
